# Patent publication US10717716B2, “1,3,4-oxadiazole derivative compounds as histone deacetylase 6 inhibitor, and the pharmaceutical composition comprising the same” (Chong Kun Dang Pharmaceutical Corp., priority 2015, dated 2020)
# Target: T1, human recombinant HDAC6 (Homo sapiens, UniProt Q9UBN7)
# T1 construct: purchased Calbiochem 382180
# T1 sequence (Q9UBN7 1-1215): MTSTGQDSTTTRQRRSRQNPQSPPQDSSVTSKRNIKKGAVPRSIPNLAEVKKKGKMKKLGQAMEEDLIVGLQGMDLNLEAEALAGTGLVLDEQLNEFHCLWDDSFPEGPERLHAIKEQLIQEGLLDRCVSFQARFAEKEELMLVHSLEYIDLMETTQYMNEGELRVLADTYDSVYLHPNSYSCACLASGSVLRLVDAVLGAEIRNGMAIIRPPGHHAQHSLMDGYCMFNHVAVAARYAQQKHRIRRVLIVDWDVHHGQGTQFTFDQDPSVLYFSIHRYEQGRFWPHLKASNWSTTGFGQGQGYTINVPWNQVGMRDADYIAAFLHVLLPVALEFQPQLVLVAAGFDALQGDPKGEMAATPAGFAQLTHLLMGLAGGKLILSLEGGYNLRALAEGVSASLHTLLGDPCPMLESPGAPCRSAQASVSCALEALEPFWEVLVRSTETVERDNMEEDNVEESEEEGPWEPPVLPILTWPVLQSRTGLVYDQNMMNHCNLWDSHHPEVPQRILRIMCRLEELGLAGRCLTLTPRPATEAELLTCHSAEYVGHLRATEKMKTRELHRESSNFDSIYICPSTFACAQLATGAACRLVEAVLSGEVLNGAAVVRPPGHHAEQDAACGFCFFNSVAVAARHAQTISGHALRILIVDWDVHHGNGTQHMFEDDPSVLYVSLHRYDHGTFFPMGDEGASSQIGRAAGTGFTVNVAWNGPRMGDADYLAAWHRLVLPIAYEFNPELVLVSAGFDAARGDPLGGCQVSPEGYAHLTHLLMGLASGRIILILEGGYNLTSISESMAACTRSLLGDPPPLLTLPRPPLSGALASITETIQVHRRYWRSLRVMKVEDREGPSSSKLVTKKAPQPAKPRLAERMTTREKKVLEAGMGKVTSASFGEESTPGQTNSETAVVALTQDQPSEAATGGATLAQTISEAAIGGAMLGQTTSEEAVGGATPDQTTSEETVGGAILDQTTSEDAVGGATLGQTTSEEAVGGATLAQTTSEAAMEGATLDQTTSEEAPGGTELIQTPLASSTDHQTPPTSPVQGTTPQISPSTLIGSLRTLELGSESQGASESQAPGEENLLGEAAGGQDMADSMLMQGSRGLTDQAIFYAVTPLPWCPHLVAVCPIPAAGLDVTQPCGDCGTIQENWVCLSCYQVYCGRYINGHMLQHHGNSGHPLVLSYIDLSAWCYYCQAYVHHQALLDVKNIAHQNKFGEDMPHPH
# Assay: HDAC6 enzyme activity inhibition assay (HDAC Fluorimetric Drug Discovery Kit)
# Type: biochemical
# Conditions: for HDAC6 selectivity (fold): HDAC6 over HDAC1; for IC50: human recombinant HDAC6, same protocol as HDAC1, read-out: HDAC6
# In short: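 Human recombinant HDAC1 or HDAC6 (0.3 μg) reacted with 10 μM Fluor de Lys-SIRT1 substrate and 5-fold compound dilutions for 60 min at 30 °C. Developer II added for 30 min, fluorescence read at Ex 360/Em 460; IC50 calculated from the readings.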
SMILES,HDAC6 selectivity (fold),IC50 [nM]
"CCCCN(Cc1ccc(-c2nnc(C(F)(F)F)o2)cc1)C(=O)N1CCOCC1 [Compound 21401, N-butyl-N-(4-(5-(trifluoromethyl)-1,3,4-oxadiazol-2-yl)benzyl)morpholine-4-carboxamide]",20,497
"O=C(N1CCS(=O)(=O)CC1)N(Cc1ccc(-c2nnc(C(F)F)o2)cc1)c1ccccc1F [Compound 21448, N-(4-(5-(difluoromethyl)-1,3,4-oxadiazol-2-yl)benzyl)-N-(2-fluorophenyl)thiomorpholine-4-carboxamide 1,1-dioxide]",278,36
"CN1CCN(C(=O)N(Cc2ccc(-c3nnc(C(F)F)o3)cn2)c2ccccc2)CC1 [Compound 21527, N-((5-(5-(difluoromethyl)-1,3,4-oxadiazol-2-yl)pyridin-2-yl)methyl)-4-methyl-N-phenylpiperazine-1-carboxamide]",357,28
"Cc1ccc(N(Cc2ccc(-c3nnc(C(F)(F)F)o3)cc2)C(=O)N2CCOCC2)c(F)c1 [Compound 21415, N-(2-fluoro-4-methylphenyl)-N-(4-(5-(trifluoromethyl)-1,3,4-oxadiazol-2-yl)benzyl)morpholine-4-carboxamide]",33,299
"O=C(NCCN1CCCCC1)N(Cc1ccc(-c2nnc(C(F)F)o2)cc1F)c1ccccc1 [Compound 21957, 1-(4-(5-(Difluoromethyl)-1,3,4-oxadiazol-2-yl)-2-fluorobenzyl)-1-phenyl-3-(2-(piperidin-1-yl)ethyl)urea]",116,86
"O=C(N1CCS(=O)(=O)CC1)N(Cc1ccc(-c2nnc(C(F)(F)F)o2)cc1F)c1ccccc1 [Compound 21369, N-(2-fluoro-4-(5-(trifluoromethyl)-1,3,4-oxadiazol-2-yl)benzyl)-N-phenylthiomorpholine-4-carboxamide 1,1-dioxide]",179,56
"O=C(N1CCS(=O)(=O)CC1)N(Cc1ccc(-c2nnc(C(F)F)o2)cc1)c1ccccc1C(F)(F)F [Compound 21450, N-(4-(5-(difluoromethyl)-1,3,4-oxadiazol-2-yl)benzyl)-N-(2-(trifluoromethyl)phenyl)thiomorpholine-4-carboxamide 1,1-dioxide]",19,530
"C[C@@H]1CN(C(=O)N(Cc2ccc(-c3nnc(C(F)(F)F)o3)cc2)c2ccccc2)C[C@H](C)O1 [Compound 21380, (2S,6R)-2,6-Dimethyl-N-phenyl-N-(4-(5-(trifluoromethyl)-1,3,4-oxadiazol-2-yl)benzyl) morpholine-4-carboxamide]",61,165
"CCN1CCN(CCNC(=O)N(Cc2ccc(-c3nnc(C(F)F)o3)cc2F)c2ccccc2)CC1 [Compound 21994, 1-(4-(5-(Difluoromethyl)-1,3,4-oxadiazol-2-yl)-2-fluorobenzyl)-3-(2-(4-ethylpiperazin-1-yl)ethyl)-1-phenylurea]",81,123
"CCN1CCN(Cc2cccc(N(Cc3ccc(-c4nnc(C(F)F)o4)cc3F)C(=O)N3CCS(=O)(=O)CC3)c2)CC1 [Compound 22024, N-(4-(5-(difluoromethyl)-1,3,4-oxadiazol-2-yl)-2-fluorobenzyl)-N-(3-((4-ethylpiperazin-1-yl)methyl)phenyl)thiomorpholine-4-carboxamide 1,1-dioxide]",36,281
"O=C(NCCN1CCN(CCCO)CC1)N(Cc1ccc(-c2nnc(C(F)F)o2)cc1F)c1ccccc1 [Compound 21998, 1-(4-(5-(Difluoromethyl)-1,3,4-oxadiazol-2-yl)-2-fluorobenzyl)-3-(2-(4-(3-hydroxypropyl)piperazin-1-yl)ethyl)-1-phenylurea]",153,66
"CCN(Cc1ccc(-c2nnc(C(F)(F)F)o2)cc1)C(=O)N1CCS(=O)(=O)CC1 [Compound 21375, N-ethyl-N-(4-(5-(trifluoromethyl)-1,3,4-oxadiazol-2-yl)benzyl)thiomorpholine-4-carboxamide 1,1-dioxide]",6,1750
"O=C(N1CCOCC1)N(Cc1ccc(CCc2nnc(C(F)(F)F)o2)cc1)c1ccccc1 [Compound 21327, N-phenyl-N-(4-(2-(5-(trifluoromethyl)-1,3,4-oxadiazol-2-yl)ethyl)benzyl)morpholine-4-carboxamide]",1,–
"CN1CCN(C(=O)N(Cc2ccc(-c3nnc(C(F)F)o3)cc2F)c2ccc(F)c(Cl)c2)CC1 [Compound 21565, N-(3-chloro-4-fluorophenyl)-N-(4-(5-(difluoromethyl)-1,3,4-oxadiazol-2-yl)-2-fluorobenzyl)-4-methylpiperazine-1-carboxamide]",625,16
"O=C(N1CCC(F)(F)CC1)N(Cc1ccc(-c2nnc(C(F)(F)F)o2)cc1)c1ccccc1 [Compound 21377, 4,4-Difluoro-N-phenyl-N-(4-(5-(trifluoromethyl)-1,3,4-oxadiazol-2-yl)benzyl)piperidine-1-carboxamide]",30,334
"CCCNC(=O)N(Cc1ccc(-c2nnc(C(F)(F)F)o2)cc1)c1ccccc1 [Compound 21354, 1-Phenyl-3-propyl-1-(4-(5-(trifluoromethyl)-1,3,4-oxadiazol-2-yl)benzyl)urea]",26,380
"O=C(N1CCOCC1)N(Cc1ccc(-c2nnc(C(F)F)o2)cc1)c1ccc(F)c(Cl)c1 [Compound 21593, N-(3-chloro-4-fluorophenyl)-N-(4-(5-(difluoromethyl)-1,3,4-oxadiazol-2-yl)benzyl)morpholine-4-carboxamide]",494,20
"O=C(N1CCS(=O)(=O)CC1)N(Cc1ccc(-c2nnc(C(F)F)o2)cc1F)c1cccs1 [Compound 22020, N-(4-(5-(Difluoromethyl)-1,3,4-oxadiazol-2-yl)-2-fluorobenzyl)-N-(thiophen-2-yl)thiomorpholine-4-carboxamide 1,1-dioxide]",73,138
"CN1CCN(C(=O)N(Cc2ccc(-c3nnc(C(F)F)o3)cn2)c2cccc(F)c2)CC1 [Compound 21599, N-((5-(5-(difluoromethyl)-1,3,4-oxadiazol-2-yl)pyridin-2-yl)methyl)-N-(3-fluorophenyl)-4-methylpiperazine-1-carboxamide]",500,20
"COc1ccc(N(Cc2ccc(-c3nnc(C(F)F)o3)cn2)C(=O)N2CCN(C3COC3)CC2)cc1 [Compound 21953, N-((5-(5-(Difluoromethyl)-1,3,4-oxadiazol-2-yl)pyridin-2-yl)methyl)-N-(4-methoxyphenyl)-4-(oxetan-3-yl)piperazine-1-carboxamide]",62,160
"CCN1CCN(C(=O)N(Cc2ccc(-c3nnc(C(F)F)o3)cc2F)c2cccc(F)c2F)CC1 [Compound 21655, N-(4-(5-(difluoromethyl)-1,3,4-oxadiazol-2-yl)-2-fluorobenzyl)-N-(2,3-difluorophenyl)-4-ethylpiperazine-1-carboxamide]",690,15
"O=C(NCCN1CCC[C@@H]1C(F)(F)F)N(Cc1ccc(-c2nnc(C(F)F)o2)cc1F)c1ccccc1 [Compound 21987, (R)-1-(4-(5-(difluoromethyl)-1,3,4-oxadiazol-2-yl)-2-fluorobenzyl)-1-phenyl-3-(2-(2-(trifluoromethyl)pyrrolidin-1-yl)ethyl)urea]",47,213
"CN1CCN(C(=O)N(Cc2ccc(-c3nnc(C(F)(F)F)o3)cc2)c2ccccc2)CC1 [Compound 21285, 4-methyl-N-phenyl-N-(4-(5-(trifluoromethyl)-1,3,4-oxadiazol-2-yl)benzyl)piperazine-1-carboxamide]",91,110
